Measurements: ChEMBL document CHEMBL1151219, “Bioactive diterpenoids, a new jatrophane and two ent-abietanes, and other constituents from Euphorbia pubescens” (2004)
Calls of active or inactive are those of the source. The rule behind the calls is not given here.

Columns and labels:
MCF7 = test: Growth inhibition of human MCF7 cells after 48 hrs by SRB assay; type: functional; settings: MCF7, 48 h
NCI-H460 = test: Growth inhibition of human NCI-H460 cells after 48 hrs by SRB assay; type: functional; settings: NCI-H460, 48 h
SF-268 [1] = test: Growth inhibition of human SF268 cells after 48 hrs by SRB assay; type: functional; settings: SF-268, 48 h
Escherichia coli = test: Antibacterial activity against Escherichia coli ATCC 25922 at 40 ug/spot after 24 hrs by bioautographic agar overlay method; type: functional, organism-based
Staphylococcus aureus = test: Antibacterial activity against Staphylococcus aureus ATCC 6538P at 2.5 ug/spot after 24 hrs by bioautographic agar overlay method; type: functional, organism-based
Pseudomonas aeruginosa = test: Antibacterial activity against Pseudomonas aeruginosa ATCC 27853 at 40 ug/spot after 24 hrs by bioautographic agar overlay method; type: functional, organism-based
SF-268 [2] = test: Growth inhibition of human SF268 cells at 100 uM after 48 hrs by SRB assay; type: functional, cell-based

Structure (SMILES) | GI50 (MCF7) [µM] | GI50 (NCI-H460) [µM] | GI50 (SF-268 [1]) [µM] | Activity (Escherichia coli) | Activity (Staphylococcus aureus) | Activity (Pseudomonas aeruginosa) | Activity (SF-268 [2])
COc1cccc2c1C(=O)c1c(O)c3c(c(O)c1C2=O)C[C@@](O)(C(=O)CO)C[C@@H]3O[C@H]1C[C@H](N)[C@H](O)[C@H](C)O1 [DOXORUBICIN] | 42.8 | 0.094 | 0.093 |  |  |  | 
CC(=O)O[C@H]1[C@H](C)C[C@]2(O)C(=O)/C(C)=C/CC(C)(C)[C@H](OC(C)=O)C[C@@H](OC(=O)c3ccccc3)/C(C)=C/[C@@H]12 [PUBESCENE D] | 37.5 | 37.5 | 90.1 |  |  |  | 
C=C1C[C@H](OC(C)=O)C(=O)C(C)(C)/C=C/[C@@H](C)C(=O)[C@@]2(OC(C)=O)C[C@H](C)[C@H](OC(=O)c3ccccc3)[C@]2(O)[C@H]1OC(C)=O [PUBESCENOL] | 69 | 55.6 | 75.2 |  |  |  | 

More lines, main results first:

GI50 (MCF7) [µM] | GI50 (NCI-H460) [µM] | Structure (SMILES) | GI50 (SF-268 [1]) [µM] | Activity (Escherichia coli) | Activity (Staphylococcus aureus) | Activity (Pseudomonas aeruginosa) | Activity (SF-268 [2])
67.5 | 72.8 | CC1=C2C=C3CC[C@@H]4C(C)(C)[C@H](O)CC[C@@]4(C)[C@@H]3C[C@H]2OC1=O [HELIOSCOPINOLIDE A] | > 100 | inactive | Active | inactive | inactive
77 | > 100 | CC1=C2C=C3CC[C@@H]4C(C)(C)[C@@H](O)CC[C@@]4(C)[C@@H]3C[C@H]2OC1=O [HELIOSCOPINOLIDE B] | > 100 | inactive | Active | inactive | inactive
